Inhibition and Ki data for 19 molecules are collected here from patent US8278301B2, “2-alkylbenzoxazole carboxamides as 5HT3 modulators” (Albany Molecular Research, Inc., priority 2006, dated 2012).

The structures appear in SMILES notation. Counter-ions that a name gives are not always drawn.

One experiment has as its target T1, mouse 5-HT3 receptor (Mus musculus, UniProt P23979).
T1 construct: host or cells: mouse neuroblastoma cells (N1E-155 as printed)
T1 sequence (P23979 24-489): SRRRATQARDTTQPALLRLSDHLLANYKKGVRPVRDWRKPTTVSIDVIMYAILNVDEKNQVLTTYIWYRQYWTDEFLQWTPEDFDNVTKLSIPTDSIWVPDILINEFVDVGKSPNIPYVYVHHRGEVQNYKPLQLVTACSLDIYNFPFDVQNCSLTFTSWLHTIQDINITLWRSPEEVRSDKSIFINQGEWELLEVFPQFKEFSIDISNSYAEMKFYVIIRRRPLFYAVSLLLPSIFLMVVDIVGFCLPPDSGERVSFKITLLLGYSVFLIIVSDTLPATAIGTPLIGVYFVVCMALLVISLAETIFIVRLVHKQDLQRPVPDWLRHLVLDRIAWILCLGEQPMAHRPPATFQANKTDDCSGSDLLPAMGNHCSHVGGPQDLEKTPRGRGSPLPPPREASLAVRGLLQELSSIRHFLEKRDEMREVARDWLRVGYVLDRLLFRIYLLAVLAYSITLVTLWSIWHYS
In words: Compound affinity for the mouse 5-HT3 receptor (Assay C), [3H]-GR65630 radioligand binding, Novoscreen. The following applies: Assay C; single concentration 100 nM, in duplicate; [3H]-GR65630; read-out: Mouse % Inhibition @ 100 nM. On the procedure:
Compound Affinity for the Mouse 5-HT3Receptor (Assay C)
(§1) Compounds were tested by Novoscreen Biosciences Corporation, 7170 Standard Drive, Hanover, Md. in a radioligand binding assay using the mouse 5-HT3 receptor derived from mouse neuroblastoma cells and [^3H]-GR65630 (ligand). The non-specific binding determinant was MDL 72222. Compounds were tested at a single concentration of 100 nM in duplicate. Percent inhibition is reported. In order to evaluate the relative affinity of the various compounds for the 5-HT3 receptor, N1E-155 cell lines were developed to express the target protein. For binding, these cells were homogenized, centrifuged and washed with buffer (20 mM HEPES, 150 mM NaCl, pH 7.4) then suspended in 0.5 mL of buffer and [^3H]-GR65630 added at a concentration of 3.5×10^−10 M. An initial single concentration of 10^−7 M of the test compound was then added. Incubation was carried out at room temperature for 60 minutes at 25° C. then was terminated by rapid removal of the incubation medium. Radioactivity was assessed using liquid scintillation spectrophotometry after exposure to scintillation cocktail for at least three hours. […] Ki values were then calculated from the Cheng-Prusoff equation. In all of the above binding studies the non-specific determinant was MDL-72222 (1.0 μM).
(§2) In the table below, the assay in which the data were obtained is shown (as A, B. C, or D) along with the data.

The target in experiment [1] is T2, human 5-HT3 receptor (Homo sapiens, UniProt P46098).
T2 sequence (P46098 24-478): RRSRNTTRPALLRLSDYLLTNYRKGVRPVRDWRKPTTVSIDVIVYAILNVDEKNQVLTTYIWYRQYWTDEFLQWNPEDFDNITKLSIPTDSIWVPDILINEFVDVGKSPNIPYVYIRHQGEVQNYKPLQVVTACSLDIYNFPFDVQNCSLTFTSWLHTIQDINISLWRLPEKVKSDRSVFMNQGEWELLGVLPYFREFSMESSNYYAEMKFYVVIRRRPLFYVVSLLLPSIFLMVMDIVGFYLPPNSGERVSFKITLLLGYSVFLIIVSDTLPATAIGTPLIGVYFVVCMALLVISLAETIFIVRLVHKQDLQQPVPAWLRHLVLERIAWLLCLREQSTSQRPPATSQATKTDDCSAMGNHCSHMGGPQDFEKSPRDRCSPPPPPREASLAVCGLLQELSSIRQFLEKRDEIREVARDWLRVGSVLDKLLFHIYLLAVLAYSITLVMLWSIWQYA
Put plainly: Compound affinity for the human 5-HT3 receptor (Assay D), [3H]BRL 43694 radioligand binding, Cerep. Details: host or cells: CHO cells. On the procedure: Compound Affinity for the Human 5-HT3Receptor (Assay D)
Compounds were tested by Cerep, Le Bois l'Evêque—B.P. 1-86600 Celle, L'Evescault, France in a radioligand binding assay using the human recombinant 5-HT3 receptor (CHO cells, Hope, A. G., Peters, J. A., Brown, A. M., Lambert, J. J. and Blackburn, T. P. Brit. J. Pharmacol., 1996, 118: 1237-1245) and [^3H]BRL 43694 (ligand) with a […] at 22° C. For the above studies, the non-specific binding determinant was MDL 72222 (10 μM). The IC50 values (concentration causing a half-maximal inhibition of control specific binding) and Hill coefficients were determined by non-linear regression analysis of the competition curves using Hill equation curve fitting. The inhibition constants (Ki) were calculated from the Cheng Prusoff equation (Ki=IC50/(1+(L/KD)), where L=concentration of radioligand in the assay, and KD=affinity of the radioligand for the receptor).
as §2

Experiment [2] concerns the target T2, human 5-HT3 receptor. Put plainly: Compound affinity for the human 5-HT3 receptor (Assay A), [3H]-GR65630 radioligand binding, MDS Pharma. Details: host or cells: N1E-155 cell lines (so in the source). The procedure: Compound Affinity for the Human 5-HT3 Receptor (Assay A)
as §1, with “tested by MDS Pharma Services—Taiwan Ltd., 158 Li—The Road, Peitou, Taipei, Taiwan 112 R.O.C. In order” for “tested by Novoscreen Biosciences Corporation, 7170 Standard Drive, Hanover, Md. in a radioligand binding assay using the mouse 5-HT3 receptor derived from mouse neuroblastoma cells and [^3H]-GR65630 (ligand). The non-specific binding determinant was MDL 72222. Compounds were tested at a single concentration of 100 nM in duplicate. Percent inhibition is reported. In order”, “for the human 5-HT3 receptor,” for “for the 5-HT3 receptor,”
as §2

Where [3] appears, read: Assay A, [3H]-GR65630, Cheng-Prusoff, read-out: Human 5HT3 Ki.
[4] abbreviates: Assay D, recombinant receptor in CHO cells, [3H]BRL 43694, Cheng-Prusoff, read-out: Human 5HT3 Ki.

For the molecule `CN1[C@@H]2CCC[C@H]1C[C@@H](NC(=O)c1cccc3oc(C(C)(C)C)nc13)C2` [Example 3, Endo-N-(9-Methyl-9-azabicyclo[3.3.1]non-3-yl)-2-tert-butylbenzoxazole-4-carboxamide], on mouse 5-HT3 receptor, the inhibition at 0.1 µM amounted to 104%. Further, the affinity at human 5-HT3 receptor [1], expressed as Ki, was 4.7 nM.

On to `Cc1nc2c(C(=O)N[C@@H]3CN4CCC3CC4)cccc2o1` [Example 35, (S)—N-(1-Azabicyclo[2.2.2]oct-3-yl)-2-methylbenzoxazole-4-carboxamide], for which the inhibition at 0.1 µM on mouse 5-HT3 receptor stood at 83%. Further, at human 5-HT3 receptor [1], the inhibition constant Ki is 12 nM. On the same counts, the results for `CC1(c2nc3c(C(=O)N[C@@H]4CN5CCC4CC5)cccc3o2)CC1` [Example 8, (S)—N-(1-Azabicyclo[2.2.2]oct-3-yl)-2-(1-methylcyclopropyl)benzoxazole-4-carboxamide Hydrochloride] are 97.6% and 19 nM. Consider `CN1[C@@H]2CCC[C@H]1C[C@@H](NC(=O)c1cccc3oc(CC4CC4)nc13)C2` [Example 11, Endo-N-(9-Methyl-9-azabicyclo[3.3.1]non-3-yl)-2-(cyclopropylmethyl)benzoxazole-4-carboxamide Hydrochloride], for which the inhibition at 0.1 µM at mouse 5-HT3 receptor stood at 98.6%. At human 5-HT3 receptor [1], this molecule came in with an inhibition constant (Ki) of 8.6 nM. Consider `CN1[C@@H]2CCC[C@H]1C[C@@H](NC(=O)c1cccc3oc(C4CCC4)nc13)C2` [Example 17, Endo-N-(9-Methyl-9-azabicyclo[3.3.1]non-3-yl)-2-cyclobutylbenzoxazole-4-carboxamide Hydrochloride], for which the inhibition at 0.1 µM on mouse 5-HT3 receptor is 108%. The Ki on human 5-HT3 receptor [1] turned out to be 7 nM. On the same counts, the results for `CC(C)(C)c1nc2c(C(=O)N[C@@H]3CN4CCC3CC4)cccc2o1` [Example 4, (S)—N-(1-Azabicyclo[2.2.2]oct-3-yl)-2-tert-butylbenzoxazole-4-carboxamide] are 94.3% and 30 nM. For `CC(=O)N1CCC(c2nc3c(C(=O)N[C@H]4C[C@H]5CCC[C@@H](C4)N5C)cccc3o2)CC1` [Example 23, Endo-N-(9-methyl-9-azabicyclo[3.3.1]non-3-yl)-2-(1-acetylpiperidin-4-yl)benzoxazole-4-carboxamide Hydrochloride], on human 5-HT3 receptor [2] (setting [3]), the inhibition constant Ki came to 36.6 nM. As to `O=C(N[C@@H]1CN2CCC1CC2)c1cc(F)cc2oc(C3CC3)nc12` [Example 19, (S)—N-(1-Azabicyclo[2.2.2]oct-3-yl)-6-fluoro-2-cyclopropylbenzoxazole-4-carboxamide Hydrochloride], the Ki on human 5-HT3 receptor [1] (setting [4]) was 44 nM. Turning to `CN1[C@@H]2CCC[C@H]1C[C@@H](NC(=O)c1cccc3oc(C4(C)CC4)nc13)C2` [Example 7, Endo-N-(9-Methyl-9-azabicyclo[3.3.1]non-3-yl)-2-(1-methylcyclopropyl)benzoxazole-4-carboxamide Hydrochloride], the inhibition at 0.1 µM on mouse 5-HT3 receptor was found to be 96.7%. This molecule displayed a Ki at human 5-HT3 receptor [1] of 3.3 nM. On to `Cc1nc2c(C(=O)N[C@H]3C[C@H]4CCC[C@@H](C3)N4C)cccc2o1` [Example 34, Endo-N-(9-Methyl-9-azabicyclo[3.3.1]non-3-yl)-2-methylbenzoxazole-4-carboxamide], for which, on mouse 5-HT3 receptor, the inhibition at 0.1 µM was determined as 79%. This molecule also gave a Ki at human 5-HT3 receptor [1] of 5.5 nM. `CN1[C@@H]2CCC[C@H]1C[C@@H](NC(=O)c1cccc3oc(C4CCCC4)nc13)C2` [Example 5, Endo-N-(9-Methyl-9-azabicyclo[3.3.1]non-3-yl)-2-cyclopentylbenzoxazole-4-carboxamide Hydrochloride] returned a Ki at human 5-HT3 receptor [2] of 2.27 nM. Moreover, the inhibition at 0.1 µM on mouse 5-HT3 receptor came to 96.2%. In the case of `O=C(N[C@@H]1CN2CCC1CC2)c1cccc2oc(CC3CC3)nc12` [Example 12, (S)—N-(1-Azabicyclo[2.2.2]oct-3-yl)-2-(cyclopropylmethyl)benzoxazole-4-carboxamide Hydrochloride], the inhibition at 0.1 µM at mouse 5-HT3 receptor was 90.6%. Also, the inhibitory constant (Ki) at human 5-HT3 receptor [1] came out at 26 nM. In the case of `CN1[C@@H]2CCC[C@H]1C[C@@H](NC(=O)c1cc(F)cc3oc(C4CC4)nc13)C2` [Example 20, Endo-N-(9-Methyl-9-azabicyclo[3.3.1]non-3-yl)-6-fluoro-2-cyclopropylbenzoxazole-4-carboxamide Hydrochloride], the Ki on human 5-HT3 receptor [1] (setting [4]) is 5.4 nM. As to `CN1[C@@H]2CCC[C@H]1C[C@@H](NC(=O)c1cccc3oc(Cc4ccccc4)nc13)C2` [Example 9, Endo-N-(9-Methyl-9-azabicyclo[3.3.1]non-3-yl)-2-benzylbenzoxazole-4-carboxamide Hydrochloride], the inhibition at 0.1 µM at mouse 5-HT3 receptor worked out at 94.7%. Also, affinity on human 5-HT3 receptor [1] was put at a Ki of 11 nM. Turning to `O=C(N[C@@H]1CN2CCC1CC2)c1cccc2oc(C3CCC3)nc12` [Example 18, (S)—N-(1-Azabicyclo[2.2.2]oct-3-yl)-2-cyclobutylbenzoxazole-4-carboxamide Hydrochloride], the inhibition at 0.1 µM on mouse 5-HT3 receptor amounted to 108%. This molecule also registered an inhibition constant (Ki) on human 5-HT3 receptor [1] of 7 nM. With `O=C(N[C@@H]1CN2CCC1CC2)c1cccc2oc(Cc3ccccc3)nc12` [Example 10, (S)—N-(1-Azabicyclo[2.2.2]oct-3-yl)-2-benzylbenzoxazole-4-carboxamide Hydrochloride], the Ki on human 5-HT3 receptor [1] (setting [4]) was found to be 21 nM. On to `CC1CC1c1nc2c(C(=O)NC3CC4CCCC(C3)N4C)cccc2o1` (stereo not drawn) [Example 13, Endo-N-(9-Methyl-9-azabicyclo[3.3.1]non-3-yl)-2-(2-methylcyclopropyl)benzoxazole-4-carboxamide Hydrochloride], for which the Ki on human 5-HT3 receptor [2] amounted to 5.74 nM. Besides, the inhibition at 0.1 µM on mouse 5-HT3 receptor was 88.1%. On to `CN1[C@@H]2CCC[C@H]1C[C@@H](NC(=O)c1cccc3oc(C4CCOCC4)nc13)C2` [Example 24, Endo-N-(9-methyl-9-azabicyclo[3.3.1]non-3-yl)-2-(tetrahydro-2H-pyran-4-yl)benzoxazole-4-carboxamide Hydrochloride], for which the inhibition constant (Ki) on human 5-HT3 receptor [2] (setting [3]) turned out to be 17.6 nM.

Consider `O=C(N[C@@H]1CN2CCC1CC2)c1cccc2ocnc12` [Example 22, (S)—N-(1-Azabicyclo[2.2.2]oct-3-yl)-benzoxazole-4-carboxamide Hydrochloride], for which the Ki on human 5-HT3 receptor [2] (setting [3]) came out at 16.6 nM.

For orientation: inhibition means the drop in the measured response relative to a control, in per cent. The term Ki denotes the equilibrium dissociation constant of an inhibitor or competing ligand from its target.
